PubChem BioAssay (NCI)
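Each compound was tested at five concentrations against cells in 96-well plates for 48 hours. GI50 is the concentration that inhibits growth by half. The concentration for full growth arrest is given as TGI.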

Tests used:
Test in all cases: DTP human tumour cell line panel, 48 h
SNB-75 CNS = tested on: SNB-75 CNS
DU-145 prostate = tested on: DU-145 prostate
SF-539 CNS = tested on: SF-539 CNS
UACC-62 melanoma = tested on: UACC-62 melanoma
HS 578T breast = tested on: HS 578T breast
NCI-H522 lung = tested on: NCI-H522 lung
HL-60(TB) leukemia = tested on: HL-60(TB) leukemia
OVCAR-4 ovarian = tested on: OVCAR-4 ovarian
U251 CNS = tested on: U251 CNS
COLO 205 colon = tested on: COLO 205 colon
SNB-19 CNS = tested on: SNB-19 CNS
MALME-3M melanoma = tested on: MALME-3M melanoma
LOX IMVI melanoma = tested on: LOX IMVI melanoma
TK-10 renal = tested on: TK-10 renal
PC-3 prostate = tested on: PC-3 prostate
SR leukemia = tested on: SR leukemia
M14 melanoma = tested on: M14 melanoma
CCRF-CEM leukemia = tested on: CCRF-CEM leukemia
EKVX NSCLC = tested on: EKVX NSCLC
SK-MEL-2 melanoma = tested on: SK-MEL-2 melanoma
OVCAR-3 ovarian = tested on: OVCAR-3 ovarian
HT29 colon = tested on: HT29 colon
RPMI-8226 leukemia = tested on: RPMI-8226 leukemia
HCT-116 colon = tested on: HCT-116 colon
BT-549 breast = tested on: BT-549 breast
A549 NSCLC = tested on: A549 NSCLC
SK-MEL-28 melanoma = tested on: SK-MEL-28 melanoma
HCC-2998 colon = tested on: HCC-2998 colon
MCF7 breast = tested on: MCF7 breast
RXF 393 renal = tested on: RXF 393 renal
MDA-MB-231 breast = tested on: MDA-MB-231 breast
HOP-92 NSCLC = tested on: HOP-92 NSCLC
MDA-MB-435 = tested on: MDA-MB-435
MOLT-4 leukemia = tested on: MOLT-4 leukemia
SK-OV-3 ovarian = tested on: SK-OV-3 ovarian
SN12C renal = tested on: SN12C renal
OVCAR-5 ovarian = tested on: OVCAR-5 ovarian
SF-268 CNS = tested on: SF-268 CNS
HCT-15 colon = tested on: HCT-15 colon
KM12 colon = tested on: KM12 colon
SK-MEL-5 melanoma = tested on: SK-MEL-5 melanoma
T-47D breast = tested on: T-47D breast
NCI/ADR-RES ovarian = tested on: NCI/ADR-RES ovarian
OVCAR-8 ovarian = tested on: OVCAR-8 ovarian
UACC-257 melanoma = tested on: UACC-257 melanoma
IGROV1 ovarian = tested on: IGROV1 ovarian
A498 renal = tested on: A498 renal
786-0 renal = tested on: 786-0 renal
HOP-62 NSCLC = tested on: HOP-62 NSCLC
SF-295 CNS = tested on: SF-295 CNS
K-562 leukemia = tested on: K-562 leukemia
UO-31 renal = tested on: UO-31 renal
NCI-H23 lung = tested on: NCI-H23 lung
NCI-H460 lung = tested on: NCI-H460 lung
NCI-H226 lung = tested on: NCI-H226 lung
ACHN renal = tested on: ACHN renal
SW-620 colon = tested on: SW-620 colon
CAKI-1 renal = tested on: CAKI-1 renal

SMILES: Cc1ccc(-c2nc(-c3cn(C)c4ncccc34)cs2)cc1
- GI50 (SNB-75 CNS): 4.16 µM
- TGI (SNB-75 CNS): 22.4 µM
- GI50 (DU-145 prostate): 7.42 µM
- TGI (DU-145 prostate): 21.3 µM
- GI50 (SF-539 CNS): 5.59 µM
- TGI (SF-539 CNS): 18.7 µM
- GI50 (UACC-62 melanoma): 3.17 µM
- TGI (UACC-62 melanoma): 16.3 µM
- GI50 (HS 578T breast): 4.71 µM
- TGI (HS 578T breast): 26.6 µM
- GI50 (NCI-H522 lung): 2.14 µM
- TGI (NCI-H522 lung): 16.7 µM
- GI50 (HL-60(TB) leukemia): 2.54 µM
- TGI (HL-60(TB) leukemia): 26.2 µM
- GI50 (OVCAR-4 ovarian): 12.8 µM
- TGI (OVCAR-4 ovarian): 46.4 µM
- GI50 (U251 CNS): 4.4 µM
- TGI (U251 CNS): 17 µM
- GI50 (COLO 205 colon): 2.82 µM
- TGI (COLO 205 colon): 10.5 µM
- GI50 (SNB-19 CNS): 5.27 µM
- TGI (SNB-19 CNS): 30.5 µM
- GI50 (MALME-3M melanoma): 4.85 µM
- TGI (MALME-3M melanoma): 26.5 µM
- GI50 (LOX IMVI melanoma): 5.06 µM
- TGI (LOX IMVI melanoma): 18.1 µM
- GI50 (TK-10 renal): 6.74 µM
- TGI (TK-10 renal): 21.6 µM
- GI50 (PC-3 prostate): 4.49 µM
- TGI (PC-3 prostate): > 44.1 µM
- GI50 (SR leukemia): 0.442 µM
- TGI (SR leukemia): 21.8 µM
- GI50 (M14 melanoma): 2.35 µM
- TGI (M14 melanoma): 8.18 µM
- GI50 (CCRF-CEM leukemia): 14.7 µM
- TGI (CCRF-CEM leukemia): > 80 µM
- GI50 (EKVX NSCLC): 4.61 µM
- TGI (EKVX NSCLC): 43.7 µM
- GI50 (SK-MEL-2 melanoma): 6.77 µM
- TGI (SK-MEL-2 melanoma): 34 µM
- GI50 (OVCAR-3 ovarian): 3.23 µM
- TGI (OVCAR-3 ovarian): 11.3 µM
- GI50 (HT29 colon): 2.32 µM
- TGI (HT29 colon): 8.51 µM
- GI50 (RPMI-8226 leukemia): 7.37 µM
- TGI (RPMI-8226 leukemia): > 69.8 µM
- GI50 (HCT-116 colon): 3.11 µM
- TGI (HCT-116 colon): 12.3 µM
- GI50 (BT-549 breast): 8 µM
- TGI (BT-549 breast): 32.4 µM
- GI50 (A549 NSCLC): 5.62 µM
- TGI (A549 NSCLC): 21.3 µM
- GI50 (SK-MEL-28 melanoma): 10.2 µM
- TGI (SK-MEL-28 melanoma): 26.4 µM
- GI50 (HCC-2998 colon): 8.96 µM
- TGI (HCC-2998 colon): 22.8 µM
- GI50 (MCF7 breast): 2.39 µM
- TGI (MCF7 breast): 15.9 µM
- GI50 (RXF 393 renal): 2.99 µM
- TGI (RXF 393 renal): 13.7 µM
- GI50 (MDA-MB-231 breast): 4.88 µM
- TGI (MDA-MB-231 breast): 21.5 µM
- GI50 (HOP-92 NSCLC): 4.73 µM
- TGI (HOP-92 NSCLC): 23.8 µM
- GI50 (MDA-MB-435): 0.402 µM
- TGI (MDA-MB-435): 2.88 µM
- GI50 (MOLT-4 leukemia): 4.24 µM
- TGI (MOLT-4 leukemia): 30.3 µM
- GI50 (SK-OV-3 ovarian): 6.86 µM
- TGI (SK-OV-3 ovarian): 27.5 µM
- GI50 (SN12C renal): 5 µM
- TGI (SN12C renal): 22.8 µM
- GI50 (OVCAR-5 ovarian): 7.78 µM
- TGI (OVCAR-5 ovarian): 26.5 µM
- GI50 (SF-268 CNS): 7.83 µM
- TGI (SF-268 CNS): 39.2 µM
- GI50 (HCT-15 colon): 3.01 µM
- TGI (HCT-15 colon): 21.3 µM
- GI50 (KM12 colon): 1.2 µM
- TGI (KM12 colon): 14 µM
- GI50 (SK-MEL-5 melanoma): 3.7 µM
- TGI (SK-MEL-5 melanoma): 14.6 µM
- GI50 (T-47D breast): 2.53 µM
- TGI (T-47D breast): 18.6 µM
- GI50 (NCI/ADR-RES ovarian): 1.42 µM
- TGI (NCI/ADR-RES ovarian): 6.8 µM
- GI50 (OVCAR-8 ovarian): 8.99 µM
- TGI (OVCAR-8 ovarian): 38.9 µM
- GI50 (UACC-257 melanoma): 9.41 µM
- TGI (UACC-257 melanoma): 28 µM
- GI50 (IGROV1 ovarian): 7.26 µM
- TGI (IGROV1 ovarian): 32.2 µM
- GI50 (A498 renal): 0.277 µM
- TGI (A498 renal): 8.24 µM
- GI50 (786-0 renal): 6.09 µM
- TGI (786-0 renal): 19.8 µM
- GI50 (HOP-62 NSCLC): 7.71 µM
- TGI (HOP-62 NSCLC): 22 µM
- GI50 (SF-295 CNS): 2.3 µM
- TGI (SF-295 CNS): 11.1 µM
- GI50 (K-562 leukemia): 1.91 µM
- TGI (K-562 leukemia): > 34.5 µM
- GI50 (UO-31 renal): 8.96 µM
- TGI (UO-31 renal): 40.5 µM
- GI50 (NCI-H23 lung): 7.12 µM
- TGI (NCI-H23 lung): 31.3 µM
- GI50 (NCI-H460 lung): 3.43 µM
- TGI (NCI-H460 lung): 14.9 µM
- GI50 (NCI-H226 lung): 4.35 µM
- TGI (NCI-H226 lung): 24.7 µM
- GI50 (ACHN renal): 7.65 µM
- TGI (ACHN renal): 29.2 µM
- GI50 (SW-620 colon): 1.95 µM
- TGI (SW-620 colon): 8.91 µM
- GI50 (CAKI-1 renal): 2.27 µM
- TGI (CAKI-1 renal): 15.2 µM
